Results taken from patent publication US8178579B2, “Dioxanes and uses thereof” (President and Fellows of Harvard College, priority 2001, dated 2012).
“Also recorded” adds a separate entry of the source.

Assays:
HT-1080 cells = test: F-actin staining by fluorescence microscopy; format: cell-based; conditions: human fibrosarcoma cells, 20 μM, 39 h
Method: (§1) Detection of acetylated α-tubulin and acetylated histones by immunofluorescence was performed as described in Example 6 above. For determining microtubule stability, A549 cells were treated as indicated, fixed in glutaraldehyde, and stained for acetylated α-tubulin and total α-tubulin in antibody dilution buffer (ADB, Tris-buffered saline (TBS), 0.15 M NaCl, 0.02 M Tris-Cl, pH 7.4, with 2% bovine serum albumin and 0.1% Triton-X 100). For cold-depolymerization, cells were incubated at 4° C. or 37° C. for an additional 90 minutes before fixation. […] For co-localization experiments, biotubacin (50 μM) treated A549 cells were fixed in 3.7% formaldehyde in TBS and processed as for detecting acetylated α-tubulin (See Example 6 above) with biotubacin detected using streptavidin-TR (1:500). HDAC6 was detected using a rabbit polyclonal antibody (1:250-1:750; C.M.G., unpublished data) under the conditions used to detect acetylated α-tubulin (See Example 6 above). Filamentous actin in HT-1080 cells was detected using TR-conjugated phalloidin (1 μg/mL), and depolymerized actin using FITC-conjugated deoxyribonuclease (10 μg/mL), following fixation in 3.7% formaldehyde in TBS. p58 (1:100) in NIH-3T3 cells was detected after fixation in 3.7% formaldehyde in TBS. […]

[1] = system: rat hippocampal neurons and astrocytes; test: cultured rat hippocampal neurons and astrocytes: viability, acetylated α-tubulin, synaptotagmin; format: cell-based
Method: All cells were cultured at 37° C. in a humidified incubator supplemented with 5% carbon dioxide. Human A549 lung carcinoma cells, Human HT-1080 fibrosarcoma cells, BSC-1 African green monkey kidney epithelial cells (all from American Tissue Culture Collection) were cultured in Dulbecco's modified eagle medium (DMEM) supplemented with 10% fetal bovine serum, 100 units/mL penicillin G sodium, 100 μg/mL streptomycin sulfate, and 2 mM L-glutamine (DMEM+). Human TAg Jurkat cells and mouse ROSA26 embryonic stem cells (gift of E. Roberston, Harvard University) were cultured as described (12). Mouse NIH-3T3 wild-type (Neo), HDAC6, HDAC6 double mutant, and HDAC1 overexpressing cells (gift from C. Hubbert, Duke University) were cultured as described (C. Hubbert et al., Nature 417, 455 (2002)1). Hippocampal neurons were dissociated from 1-day old rats and grown in culture using methods as described (E. N. Star, D. J. Kwiatkowski and V. N. Murthy, Nat. Neurosci. 5, 239 (2002)). All animal experiments were approved by Harvard University's standing committee on the use of animals in research and training.
as §1, with “above.” for “above. For determining microtubule stability, A549 cells were treated as indicated, fixed in glutaraldehyde, and stained for acetylated α-tubulin and total α-tubulin in antibody dilution buffer (ADB, Tris-buffered saline (TBS), 0.15 M NaCl, 0.02 M Tris-Cl, pH 7.4, with 2% bovine serum albumin and 0.1% Triton-X 100). For cold-depolymerization, cells were incubated at 4° C. or 37° C. for an additional 90 minutes before fixation.”

O=C(CCCCCCC(=O)Nc1ccc([C@@H]2OC(c3ccc(CO)cc3)C[C@H](CSc3nc(-c4ccccc4)c(-c4ccccc4)o3)O2)cc1)NO (stereo partly shown) [tubacin]
F-actin microfilaments / actin stress fibers (HT-1080 cells): increases F-actin microfilaments; also recorded: caused an increase in the abundance of actin stress fibers | viability and morphology of neurons and astrocytes ([1]; 7-day old cultures: greater than 5 μM (10 μM, 48 h), 10-day old cultures: 1-2 μM, 96 h): decreased the viability and staining with synaptotagmin; also recorded: had no affect on the viability of 10-day old neurons and astrocytes; also recorded: caused morphological changes and cell death; also recorded: did not cause a significant decrease in the number of 10-day old rat hippocampal neurons or astrocytes | α-tubulin acetylation in neurons and astrocytes ([1]; tubacin 1 μM 96 h or 10 μM 48 h, niltubacin 5 μM): increased the acetylation of α-tubulin; also recorded: increased α-tubulin acetylation in both cell types | synaptotagmin staining / synapses ([1]; tubacin at least 1 μM for four days or 10 μM 48 h, niltubacin 5 μM): decreased the viability and staining with synaptotagmin; also recorded: had fewer synapses when compared to control cells
